Source: US20260224521A1, “BIOMOLECULE FOR TREATMENT OF CORNEAL PATHOLOGIES” (Board of Supervisors of Louisiana State University and …, priority 2019, published 2026)

What was measured:
[1] = system: AXL receptors; details: osteoporosis mouse model (97); cited from earlier work
[2] = system: mouse cornea; assay: Corneal sensitivity measurement (Belmonte non-contact aesthesiometer); type: in vivo; details: day 9 after injury and treatment; vs vehicle
Experimental: Corneal sensitivity was evaluated at days 3, 6, 9 and 12 after corneal injury and treatment (FIG. 4). A new methodology to measure the sensation in mouse cornea was introduced using the Belmonte non-contact aesthesiometer. […] It is important to note that this range of normal corneal sensitivity is critical to evaluate corneal sensation since the Belmonte non-contact aesthesiometer working flow rate is from 20 to 200 ml/min. The range of normal corneal sensitivity from […] in the mouse was regarded as successful recovery after injury and treatment, and it was used to normalize the measurements.
(§1) Mice were anesthetized with a mix of ketamine (200 mg/kg) and xylazine (10 mg/kg) injected intraperitoneally, and one drop of proparacaine hydrochloride solution (0.5%) was applied to the right eye subjected to injury. As previously described (19, 29), the center of the cornea was demarcated with a 2 mm trephine, and the epithelium and the anterior stroma were gently removed under a surgical microscope using a corneal rust ring remover (Algerbrush II; Alger Equipment Co., Lago Vista, TX, USA). One drop of 0.3% of tobramycin ophthalmic solution (Henry Schein, Melville, NY, USA) was applied to the eye to prevent postoperative infection. The same investigator (J.H.) performed all surgeries. Afterward, 10 μl of PEDF (50 ng/ml) plus DHA (50 nM) or DHA-derived lipid mediators were applied topically, as explained in each experimental design.
The non-contact corneal aesthesiometer has been described as a more reliable method than the standard Cochet-Bonnet aesthesiometer to determine the corneal sensation threshold (54). Therefore, for corneal sensation measurement, the Belmonte non-contact corneal aesthesiometer (55) was used with some modification. Briefly, one researcher held the mouse and kept the air output needle at a distance of 3 mm from the cornea. Another researcher controlled the air flow rate. The measurements started at an air flow rate of 80 ml per minute and then increased gradually by ten units until the mouse started blinking. When the mouse blinked, the air flow rate was recorded as the final corneal sensitivity index.

[3] = system: corneal nerves; assay: Corneal nerve analysis (PGP9.5 and SP whole-mount nerve density); type: in vivo, mouse
Description: PEDF+DHA stimulates corneal nerve regeneration in injury animal models (20-25). It was important to confirm the biological activity of RvD6si as a lipid mediator underlying the action of PEDF+DHA. To validate this, mice were injured and treated (as described in FIG. 4). Isolated corneas were stained with PGP 9.5, a pan-neuronal marker, and with SP neuropeptide antibodies. The density of non-injured corneal nerves positive to PGP 9.5 and SP, respectively, was used to normalize the values (FIG. 5). Substance P is a main neuropeptide in mammalian corneas (26-28).
as §1
Twelve days after injury and treatment, mice were euthanized, and the eyes enucleated and fixed with Zamboni's fixative (American Master Tech Scientific, Lodi, CA, USA) for 45 min at room temperature. The corneas were then excised and fixed for an additional 15 min, followed by 3 washes with PBS. To block nonspecific binding, corneas were incubated with 10% normal goat serum plus 0.5% Triton X-100 in PBS for 1 h at room temperature. Afterward, corneas were incubated with the primary antibodies, rabbit monoclonal anti-PGP9.5 (1:500), (ab108986; Abcam, Cambridge, MA, USA), and rat monoclonal anti-substance-P (SP; 1:100) (sc-21715; Santa Cruz Biotechnology, Dallas, TX, USA) for 24 h at room temperature with constant shaking. After being washed with PBS, the corneas were incubated with the corresponding secondary antibodies goat anti-rabbit Alexa-Fluor 488 (1:1000) and goat anti-rat Alexa-Fluor 488 (1:1000) (Thermo Fisher Scientific, Waltham, MA, USA) for 24 h at 4° C. Four radial cuts were performed on each cornea that was flatly mounted on a slide with the endothelium side up and examined with a fluorescent microscope (Deconvolution microscope DP80; Olympus, Tokyo, Japan). The images were merged together to build the entire view of the corneal nerve network. The corneal nerve density was measured using Photoshop CC 2014 (Adobe) as previously described (26, 29).

[4] = system: trigeminal ganglion (TG) gene expression; assay: Trigeminal ganglion RNA sequencing after corneal injury and treatment; type: in vivo, mouse; details: RNA-seq, 12 days after corneal injury and topical treatment; vs vehicle
Experimental: Because corneal sensory nerves originate in TG neurons, we wanted to validate whether corneal injury could be sensed in the TG and t, in turn, would elicit a gene expression response. Thus, TG were harvested 12 days after injury and treatment with RvD6si or RvD6 or vehicle treatment used as control (FIG. 4) and then RNA-seq analysis was performed. […] The box plots depict two activated genes by RvD6si in this class: C9orf72 and Gpm6a (FIG. 6). We also detected specific genes related to neuropeptides and ion channel receptors in the cornea that are stimulated by the addition of PEDF+DHA (19, 21, 24) (FIG. 6D). The RNA-seq established that RvD6 or RvD6si reduced gene expression of two major neuropeptides, tachykinin precursor 1 (Tac1) that encodes Substance P (SP) and calcitonin-related polypeptide beta (Calcb). It is important to note that these neuropeptides, especially Calcb, are major pain-induced mediators in migraine and other primary headaches (30).
TG corresponding to the injury eye side (n=5) were harvested and kept in RNAlater solution (Thermo Fisher Scientific) until homogenized on ice using a Dounce homogenizer. Total mRNA was extracted using an RNeasy mini kit (Qiagen, Germantown, MD, USA) as described by the manufacturer. Purity and concentration of RNA were determined with a NanoDrop ND-1000 spectrophotometer (Thermo Fisher Scientific), and the samples were stored at −80° C. until used. RNA sequencing was performed using the adapted Smart-seq2 protocol (56). Briefly, one ng of total RNA was reverse transcribed with the Oligo-dT30VN and template-switching oligo (TSO) primers. The total cDNAs were amplified using ISPCR primer, and the library was made using the Nextera XT DNA library preparation kit (Illumina, San Diego, CA, USA). The libraries were pooled using the same molarity and sequenced using the NextSeq 500/550 High Output Kit v2 (75 cycles, Illumina). After demultiplexing, RNA-seq data were aligned to the GENCODE GRCm38 mouse primary genome assembly (Release M22, gencodegenes.org/mouse/) using the RSubread package v1.34.6 for R v3.6.1 (57). The outputted BAM files for sequencing data alignment were counted using featureCounts function (Subread v1.6.5 in Ubuntu LTS 16.4 operating system) (58). Next, the raw count data were subjected to differential gene expression analysis using DESeq2 package for R (59). The adjusted p-values were regarded as the false discover rate (FDR).

[5] = system: mouse cornea; assay: Corneal wound healing 20 h after injury (methylene blue stained wounded area); type: in vivo; details: 20 h after injury and topical treatment; compared to vehicle
Experimental: Studies have shown that PEDF+DHA promotes corneal wound healing in rabbit (20, 21), and in normal and diabetic mice (24, 25) after experimental surgery. We validated the ability of RvD6s (either RvD6 or RvD6si) in stimulating corneal wound healing. The right mouse eyes were injured, and the animals were divided into four groups: vehicle, PEDF+DHA, RvD6, and RvD6si (FIG. 4).
as §1
Mice were euthanized 20 h after injury and treatment, and corneas were stained with 0.5% methylene blue for 20 sec and then washed with PBS for 2 min. Photographs were taken with a dissecting microscope (SMZ 1500; Nikon, Tokyo, Japan) through an attached digital camera (DXM 1200; Nikon). The images corresponding to the wounded area were quantified using Photoshop CC 2014 software (Adobe, San Jose, CA, USA).

[6] = mouse model of tibia bone fracture (96); cited from earlier work
[7] = topical NGF (95); cited from earlier work
[8] = system: rabbit cornea; details: cited from earlier work
[9] = system: injured corneas; details: NPD1 added to injured corneas (27); cited from earlier work
[10] = system: mouse cornea; details: topical eye drops, 3× daily for 96 hours; 2005 (76); cited from earlier work
[11] = Incorporation of DHA into PC and PE after topical DHA to corneas with damaged stromal nerves; type: in vivo; details: 1 h, injured mouse corneas
Experimental: Proportion of PC and PE containing oleic acid (18:1) in the sn-1 and DHA in the sn-2 position. PE was more enriched in the DHA than PC. […] Corneal lipid profiles were analyzed by mass spectrometry-based lipidomic analysis.

[12] = system: mouse cornea; details: subconjunctival injection every 48 hours, 14 days; 2009 (77); cited from earlier work
[13] = system: corneal nerves; details: daily i.p. injections of 1 ng/g body weight for 8 weeks; 2017 (79); cited from earlier work
[14] = system: retinal pigment epithelial (RPE) cells; details: RPE cells (16); cited from earlier work

CC/C=C\C[C@@H](O)/C=C/C=C/C/C=C\C/C=C\C/C=C\CCC(=O)O [17R-hydroxy DHA]
pain behavior [1]: decrease pain behavior

CC/C=C\C[C@H](O)/C=C/C=C\C/C=C\C/C=C\C=C\[C@@H](O)CCC(=O)O [RvD6, 4S,17S-dihydroxy-5E,7Z,10Z,13Z,15E,19Z-docosahexaenoic acid, reference compound]
corneal sensitivity [2]: higher | total corneal nerve density, differences between RvD6si, RvD6, and PEDF+DHA ([3]; 12 days after injury and treatment): no significant differences | total corneal nerve density (PGP 9.5) ([3]; 12 days after injury and treatment, % of the normal (uninjured) cornea): 59.7±11.2% | density of SP-positive nerves ([3]; 12 days after injury, compared to the vehicle-treated group): higher | Calcb gene expression in TG [4]: reduced | Tac1 gene expression in TG [4]: reduced | corneal wound healing (wound closure) [5]: faster

CC/C=C\C[C@H](O)/C=C\C=C\C/C=C/C=C/C=C/C(O)[C@@H](O)CCC(=O)O (stereo in doubt) [RvD4, Resolvin D4]
pain [6]: no effect

NGF: nerve growth factor
side effect of topical treatment [7]: ocular pain

CC/C=C\C[C@H](O)\C=C/C=C/C=C/[C@H](O)C/C=C\C/C=C\CCC(=O)O [NPD1, neuroprotectin D1]
neutrophil infiltration ([8]; after 2 and 4 days of treatment, 2013 (41)): Decreased neutrophil infiltration after 2 and 4 | subepithelial corneal nerves and tear secretion ([8]; topical eye drops 33 ng/eye, 3× daily for 6 weeks, 2013 (41)): Increased subepithelial corneal nerves and tear | gene expression and protein levels of NGF, BDNF and Sema7A [9]: increase | PMNs in the cornea [10]: Increased | formation of the proinflammatory chemokine KC [10]: Decreased | rate of re-epithelialization [10]: Increased the rate of re-epithelialization

CC/C=C\C[C@H](O)/C=C/C=C\C/C=C\C/C=C\C/C=C\CCC(=O)O [17S-HDHA]
PMNs in the cornea [10]: Increased | formation of the proinflammatory chemokine KC [10]: Decreased | rate of re-epithelialization [10]: Increased the rate of re-epithelialization

CC/C=C\C[C@H](O)/C=C/C=C\C[C@@H](O)/C=C/C=C/C=C\[C@@H](O)CCC(=O)O [RvD3, Resolvin D3]
pain [6]: no effect

CC/C=C\C/C=C\C/C=C\C/C=C\C/C=C\C/C=C\CCC(=O)O [DHA, docosahexaenoic acid]
incorporation of the fatty acid in PC and PE molecular species containing 18:1-DHA [11]: rapid incorporation

CC/C=C\C[C@H](O)/C=C/C=C\C/C=C\C=C\[C@@H](O)C/C=C\CCC(=O)O [RvD5, Resolvin D5]
pain [6]: pain attenuation

CC/C=C\C[C@H](O)/C=C/C=C\C=C\C=C\[C@@H](O)[C@@H](O)C/C=C\CCC(=O)O [RvD1, Resolvin D1]
mRNA expression levels of TNF-α, IL-1α, IL-1β, VEGF-A, VEGF-C, and VEGFR2 [12]: macrophages and reduced mRNA expression | suture-induced or IL-1β-induced hemangiogenesis (HA) [12]: Suppressed suture-induced or IL-1β-induced | diabetes-induced corneal nerve lost [13]: Reduced the diabetes-induced comeal nerve | pain [6]: pain attenuation

CC/C=C\C[C@H](O)/C=C/C=C\C=C\C=C\[C@@H](O)[C@@H](O)C/C=C\CCC(=O)OC [RvD1-methyl ester]
diabetes-induced corneal nerve lost [13]: Reduced the diabetes-induced comeal nerve

CC/C=C\C[C@H](O)[C@H](O)/C=C/C=C/C=C\C=C\[C@@H](O)C/C=C\CCC(=O)OC [RvD2-methyl ester]
diabetes-induced corneal nerve lost [13]: Reduced the diabetes-induced comeal nerve

B1: PEDF: pigment epithelium-derived factor, a broad-acting neurotrophic and neuroprotective factor (protein, UniProt P36955 20-418, looked up)
Pigment epithelium-derived …: QNPASPPEEGSPDPDSTGALVEEEDPFFKVPVNKLAAAVSNFGYDLYRVRSSTSPTTNVLLSPLSVATALSALSLGAEQRTESIIHRALYYDLISSPDIHGTYKELLDTVTAPQKNLKSASRIVFEKKLRIKSSFVAPLEKSYGTRPRVLTGNPRLDLQEINNWVQAQMKGKLARSTKEIPDEISILLLGVAHFKGQWVTKFDSRKTSLEDFYLDEERTVRVPMMSDPKAVLRYGLDSDLSCKIAQLPLTGSMSIIFFLPLKVTQNLTLIEESLTSEFIHDIDRELKTVQAVLTVPKLKLSYEGEVTKSLQEMKLQSLFDSPDFSKITGKPIKLTQVEHRAGFEWNEDGAGTTPSPGLQPAHLTFPLDYHLNQPFIFVLRDTDTGALLFIGKILDPRGP
cornea nerve regeneration ([8]; treatment with PEDF or DHA alone (19)): no increase | potency in stimulating NPD1 synthesis relative to NGF [14]: 10 times
